# Results taken from ChEMBL document CHEMBL3885861, “Open TG-GATES”.
# Species on record: Rattus norvegicus
# Assay: Open TG-GATES - Regimen: Daily Repeat
# Format: toxicity, organism-based, Sprague-Dawley
# Design: regimen Daily Repeat, gender Male, age 6 weeks
# Conditions: in vivo, po, 0 mg/kg, route gavage, dose level Control; for APTT / Bas / Eos / Fbg / Hb / Ht / Lym / MCH / MCHC / MCV / Mono / Neu / PT / Plat / RBC / Ret / WBC: tissue Blood; for KIDNEY_L / KIDNEY_R / KIDNEY_TOTAL: tissue Kidney; for LIVER: tissue Liver; for A/G / ALP / ALT / AST / BUN / CRE / Ca / Cl / DBIL / GLC / IP / K / LDH / Na / PL / RALB / TBIL / TC / TG / TP / gamma-GTP: tissue Plasma
compound,measurement,setting,value
CCc1oc2ccccc2c1C(=O)c1cc(I)c(O)c(I)c1 [BENZIODARONE],TERMINAL_BW,"72 h, time 3 day",239.1 g
same,APTT,"72 h, time 3 day",17.3 s
same,Bas,"72 h, time 3 day",0%
same,Eos,"72 h, time 3 day",0.8%
same,Fbg,"72 h, time 3 day",216.8 mg/dL
same,Hb,"72 h, time 3 day",14.1 g/dL
same,Ht,"72 h, time 3 day",41.9%
same,Lym,"72 h, time 3 day",76.2%
same,MCH,"72 h, time 3 day",21.4 pg
same,MCHC,"72 h, time 3 day",33.7%
same,MCV,"72 h, time 3 day",63.6 fL
same,Mono,"72 h, time 3 day",7%
same,Neu,"72 h, time 3 day",15.6%
same,PT,"72 h, time 3 day",11.7 s
same,Plat,"72 h, time 3 day",125.7 x10_4/uL
same,RBC,"72 h, time 3 day",658.4 x10_4/ul
same,Ret,"72 h, time 3 day",6.2%
same,WBC,"72 h, time 3 day",99.6 x10_2/uL
same,KIDNEY_L,"72 h, time 3 day",1.1 g
same,KIDNEY_R,"72 h, time 3 day",1.1 g
same,KIDNEY_TOTAL,"72 h, time 3 day",2.2 g
same,LIVER,"72 h, time 3 day",11.6 g
same,A/G,"72 h, time 3 day",1.8
same,ALP,"72 h, time 3 day",882.4 IU/L
same,ALT,"72 h, time 3 day",39 IU/L
same,AST,"72 h, time 3 day",62.6 IU/L
same,BUN,"72 h, time 3 day",17.4 mg/dL
same,CRE,"72 h, time 3 day",0.5 mg/dL
same,Ca,"72 h, time 3 day",10.7 mg/dL
same,Cl,"72 h, time 3 day",104.6 meq/L
same,DBIL,"72 h, time 3 day",0.014 mg/dL
same,GLC,"72 h, time 3 day",203.2 mg/dL
same,IP,"72 h, time 3 day",7.2 mg/dL
same,K,"72 h, time 3 day",4.7 meq/L
same,LDH,"72 h, time 3 day",79.6 IU/L
same,Na,"72 h, time 3 day",141 meq/L
same,PL,"72 h, time 3 day",147.4 mg/dL
same,RALB,"72 h, time 3 day",3.7 g/dL
same,TBIL,"72 h, time 3 day",0.3 mg/dL
same,TC,"72 h, time 3 day",75.4 mg/dL
same,TG,"72 h, time 3 day",103.6 mg/dL
same,TP,"72 h, time 3 day",5.7 g/dL
same,gamma-GTP,"72 h, time 3 day",1.2 IU/L
same,TERMINAL_BW,"[…], time 7 day",272.7 g
same,TERMINAL_BW,"[…], time 14 day",335.3 g
same,TERMINAL_BW,"[…], time 28 day",397 g
same,APTT,"[…], time 7 day",16.8 s
same,Bas,"[…], time 7 day",0%
same,Eos,"[…], time 7 day",1%
same,Fbg,"[…], time 7 day",220 mg/dL
same,Hb,"[…], time 7 day",14.2 g/dL
same,Ht,"[…], time 7 day",41.6%
same,Lym,"[…], time 7 day",77.8%
same,MCH,"[…], time 7 day",21.4 pg
same,MCHC,"[…], time 7 day",34.1%
same,MCV,"[…], time 7 day",62.8 fL
same,Mono,"[…], time 7 day",7.2%
same,Neu,"[…], time 7 day",14.2%
same,PT,"[…], time 7 day",11.5 s
same,Plat,"[…], time 7 day",125.2 x10_4/uL
same,RBC,"[…], time 7 day",662.2 x10_4/ul
same,Ret,"[…], time 7 day",4.5%
same,WBC,"[…], time 7 day",108.6 x10_2/uL
same,APTT,"[…], time 14 day",17.1 s
same,Bas,"[…], time 14 day",0%
same,Eos,"[…], time 14 day",1%
same,Fbg,"[…], time 14 day",220.6 mg/dL
same,Hb,"[…], time 14 day",14.2 g/dL
same,Ht,"[…], time 14 day",41.9%
same,Lym,"[…], time 14 day",80.8%
same,MCH,"[…], time 14 day",20.9 pg
same,MCHC,"[…], time 14 day",34%
same,MCV,"[…], time 14 day",61.5 fL
same,Mono,"[…], time 14 day",6%
same,Neu,"[…], time 14 day",12.6%
same,PT,"[…], time 14 day",11.5 s
same,Plat,"[…], time 14 day",115.3 x10_4/uL
same,RBC,"[…], time 14 day",683.2 x10_4/ul
same,Ret,"[…], time 14 day",3.1%
same,WBC,"[…], time 14 day",110 x10_2/uL
same,APTT,"[…], time 28 day",17.9 s
same,Bas,"[…], time 28 day",0%
same,Eos,"[…], time 28 day",1.6%
same,Fbg,"[…], time 28 day",215.8 mg/dL
same,Hb,"[…], time 28 day",15.8 g/dL
same,Ht,"[…], time 28 day",46.8%
same,Lym,"[…], time 28 day",80%
same,MCH,"[…], time 28 day",19.5 pg
same,MCHC,"[…], time 28 day",33.7%
same,MCV,"[…], time 28 day",57.7 fL
same,Mono,"[…], time 28 day",5.4%
same,Neu,"[…], time 28 day",13.4%
same,PT,"[…], time 28 day",11.9 s
same,Plat,"[…], time 28 day",117.3 x10_4/uL
same,RBC,"[…], time 28 day",812.6 x10_4/ul
same,Ret,"[…], time 28 day",3.1%
same,WBC,"[…], time 28 day",150.6 x10_2/uL
same,KIDNEY_L,"[…], time 7 day",1.1 g
same,KIDNEY_R,"[…], time 7 day",1.2 g
same,KIDNEY_TOTAL,"[…], time 7 day",2.3 g
same,KIDNEY_L,"[…], time 14 day",1.3 g
same,KIDNEY_R,"[…], time 14 day",1.3 g
same,KIDNEY_TOTAL,"[…], time 14 day",2.6 g
same,KIDNEY_L,"[…], time 28 day",1.4 g
same,KIDNEY_R,"[…], time 28 day",1.4 g
same,KIDNEY_TOTAL,"[…], time 28 day",2.9 g
same,LIVER,"[…], time 7 day",12.8 g
same,LIVER,"[…], time 14 day",15.1 g
same,LIVER,"[…], time 28 day",15.6 g
same,A/G,"[…], time 7 day",1.7
same,ALP,"[…], time 7 day",916.8 IU/L
same,ALT,"[…], time 7 day",36 IU/L
same,AST,"[…], time 7 day",62.8 IU/L
same,BUN,"[…], time 7 day",19.2 mg/dL
same,CRE,"[…], time 7 day",0.5 mg/dL
same,Ca,"[…], time 7 day",10.6 mg/dL
same,Cl,"[…], time 7 day",104.6 meq/L
same,DBIL,"[…], time 7 day",0.048 mg/dL
same,GLC,"[…], time 7 day",192 mg/dL
same,IP,"[…], time 7 day",6.9 mg/dL
same,K,"[…], time 7 day",4.9 meq/L
same,LDH,"[…], time 7 day",86 IU/L
same,Na,"[…], time 7 day",139.6 meq/L
same,PL,"[…], time 7 day",141.8 mg/dL
same,RALB,"[…], time 7 day",3.6 g/dL
same,TBIL,"[…], time 7 day",0.3 mg/dL
same,TC,"[…], time 7 day",65 mg/dL
same,TG,"[…], time 7 day",114.2 mg/dL
same,TP,"[…], time 7 day",5.7 g/dL
same,gamma-GTP,"[…], time 7 day",1.8 IU/L
same,A/G,"[…], time 14 day",1.6
same,ALP,"[…], time 14 day",789.8 IU/L
same,ALT,"[…], time 14 day",32.2 IU/L
same,AST,"[…], time 14 day",63.2 IU/L
same,BUN,"[…], time 14 day",19.6 mg/dL
same,CRE,"[…], time 14 day",0.5 mg/dL
same,Ca,"[…], time 14 day",10.5 mg/dL
same,Cl,"[…], time 14 day",104.4 meq/L
same,DBIL,"[…], time 14 day",0 mg/dL
same,GLC,"[…], time 14 day",201 mg/dL
same,IP,"[…], time 14 day",6.7 mg/dL
same,K,"[…], time 14 day",4.9 meq/L
same,LDH,"[…], time 14 day",97.2 IU/L
same,Na,"[…], time 14 day",140.6 meq/L
same,PL,"[…], time 14 day",149 mg/dL
same,RALB,"[…], time 14 day",3.7 g/dL
same,TBIL,"[…], time 14 day",0.3 mg/dL
same,TC,"[…], time 14 day",72.4 mg/dL
same,TG,"[…], time 14 day",152 mg/dL
same,TP,"[…], time 14 day",6 g/dL
same,gamma-GTP,"[…], time 14 day",2 IU/L
same,A/G,"[…], time 28 day",1.5
same,ALP,"[…], time 28 day",606.6 IU/L
same,ALT,"[…], time 28 day",27 IU/L
same,AST,"[…], time 28 day",57 IU/L
same,BUN,"[…], time 28 day",19.8 mg/dL
same,CRE,"[…], time 28 day",0.6 mg/dL
same,Ca,"[…], time 28 day",10.6 mg/dL
same,Cl,"[…], time 28 day",105.6 meq/L
same,DBIL,"[…], time 28 day",0.04 mg/dL
same,GLC,"[…], time 28 day",200 mg/dL
same,IP,"[…], time 28 day",5.7 mg/dL
same,K,"[…], time 28 day",4.5 meq/L
same,LDH,"[…], time 28 day",79 IU/L
same,Na,"[…], time 28 day",140 meq/L
same,PL,"[…], time 28 day",135 mg/dL
same,RALB,"[…], time 28 day",3.7 g/dL
same,TBIL,"[…], time 28 day",0.3 mg/dL
same,TC,"[…], time 28 day",58 mg/dL
same,TG,"[…], time 28 day",164.8 mg/dL
same,TP,"[…], time 28 day",6.2 g/dL
same,gamma-GTP,"[…], time 28 day",2.2 IU/L
